Values of other authors in patent publication US6465192B2, “Compounds and methods for the inhibition of protein-protein interactions” (priority 1997, dated 2002).

Assays:
[1] = halogen substitutions of the phenyl ring, SN1

For `COc1ccc([N+](=O)[O-])c(F)c1CBr` [R = F, 2-methoxy-5-nitro-6-fluorobenzyl bromide], the Relative reaction rate [1] is listed as 0.05.
For penicillin, the “forward reaction rate with lysine side chains in proteins” value (physiological conditions) is given as “about 1×10^−5 /M/sec” and the “non-specific covalent bonding rate constant to form stable bonds with amino acid side chains” value (side chains such as those of serine and lysine) is given as “about 8×10^−6 /M/sec”.
For `COc1ccc([N+](=O)[O-])c(Br)c1CBr` [R = Br, 2-methoxy-5-nitro-6-bromobenzyl bromide], the Relative reaction rate [1] is given as 0.006.
